From the supplement of paper PMC11208160

Experiment: recombinant UMI read abundance after kanamycin selection (control-corrected) (log10(CPM+1)); higher = more efficient recombination; extreme values may be limits of the assay; sequences stand for … in AGTGCAGAGAAAATCGGCCAGTTTTCTCTGCCTGCAGTCCGCATGCCGTGGGACCCCTTGGGTTCTAACCTGTTGCCTAGATTTATGCAGCGGACTGCCTTTCTCCCAAAGTGATAAACCGG…AGGTTGGTTTCACT; site = the 11-nt donor
Procedure: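 Pooled E. coli donor-specificity screen for the IS621 bridge recombinase. Each library member carries a reprogrammed 11-nt donor and a full-length LE bridge RNA expressed in cis from the natural promoter, with a paired donor-binding loop (8-nt LDG + 4-nt RDG) and a target-binding loop fixed to T5. It is co-electroporated with a T5 target plasmid; recombinase is induced with 0.07 mM IPTG and recombinants are selected on kanamycin. UMIs are counted as CPM, averaged over two biological replicates and corrected by the unselected control. Molecule = full bridge RNA written as DNA, built from the T5 scaffold: LDG = donor specificity nt 1-8, RDG = reverse complement of nt 8-11.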
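Note: IS621 bridge recombinase in Escherichia coli cells against a fixed T5 target plasmid.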

Row | Sequence | recombinant UMI read abundance (log10)
1 | AGGCTAGCATGGACCGGTTTTCCCGGTAATCCGTATTTGTT (site AGCCTAGCTAA) | 0.017
2 | CGGGAACCATGGACCGGTTTTCCCGGTAATCCGTATTTGAT (site CGGGAACCTAG) | 0
3 | GGAAAGGCATGGACCGGTTTTCCCGGTAATCCGTATTTGCT (site AGAAAGGCTAG) | 1.75
4 | GTGTAGGCATGGACCGGTTTTCCCGGTAATCCGTATTTGTG (site GTGGAGGCTCA) | 0.00345
5 | AACGTATCATGGACCGGTTTTCCCGGTAATCCGTATTTGCA (site AACGTATCTTG) | 2.73
6 | CACCACACATGGACCGGTTTTCCCGGTAATCCGTATTTGTA (site CTCCACACTTA) | 0.179
7 | GACCCATCATGGACCGGTTTTCCCGGTAATCCGTATTTGCC (site GACCCATCTGG) | 1.64
8 | TTCACCGCATGGACCGGTTTTCCCGGTAATCCGTATTTGCG (site TGCACCGCTCG) | 0.0109
9 | CTGGAAACATGGACCGGTTTTCCCGGTAATCCGTATTTGCA (site CTGGAATCTTG) | 1.21
10 | ATCCATGCATGGACCGGTTTTCCCGGTAATCCGTATTTGAG (site ATCCAGGCTCT) | 0.0333
11 | CCTAAAGCATGGACCGGTTTTCCCGGTAATCCGTATTTGAT (site CCTAAAGCTCT) | 0.00392
12 | TTAGCTGCATGGACCGGTTTTCCCGGTAATCCGTATTTGTG (site TTAGCTGCTCC) | 0.0667
13 | GATTCGGCATGGACCGGTTTTCCCGGTAATCCGTATTTGAC (site GATTCGGCTGT) | 0.484
14 | ATACTAACATGGACCGGTTTTCCCGGTAATCCGTATTTGGA (site ATACTAACTTC) | 1.2
15 | GGTACTTCATGGACCGGTTTTCCCGGTAATCCGTATTTGTT (site GGTACATCTAA) | 0.0111
16 | CGCATAGCATGGACCGGTTTTCCCGGTAATCCGTATTTGTA (site CGCATAGCTTA) | 2.51
17 | CGAGGGCCATGGACCGGTTTTCCCGGTAATCCGTATTTGGG (site CGAGGACCTCC) | 0.0191
18 | ACGGCCCCATGGACCGGTTTTCCCGGTAATCCGTATTTGTG (site ACGGCCCCTCA) | 0.0276
19 | GAAGTGGCATGGACCGGTTTTCCCGGTAATCCGTATTTGGT (site GTAGTGGCTAC) | 0.882
20 | CTAGAGACATGGACCGGTTTTCCCGGTAATCCGTATTTGTC (site CTAGAGACTGA) | 2.28
21 | TAGCAAGCATGGACCGGTTTTCCCGGTAATCCGTATTTGAA (site TAGCCAGCTTT) | 0.0116
22 | TTTGCGGCATGGACCGGTTTTCCCGGTAATCCGTATTTGCT (site TTCGCGGCTAG) | 0
23 | ACACTATCATGGACCGGTTTTCCCGGTAATCCGTATTTGCG (site ACAGTATCTTG) | 0
24 | CTAGTATCATGGACCGGTTTTCCCGGTAATCCGTATTTGAC (site CTTGTGTCTGT) | 0

Row | Sequence | recombinant UMI read abundance (log10)
25 | CTCTTCTCATGGACCGGTTTTCCCGGTAATCCGTATTTGGG (site CCCTTCTCTCC) | 0.0128
26 | ATCGAGACATGGACCGGTTTTCCCGGTAATCCGTATTTGGT (site ATCGAGACTAC) | 1.01
27 | CAGTCGACATGGACCGGTTTTCCCGGTAATCCGTATTTGTG (site CAGTCGACTCG) | 0.00379
28 | GCGTTTACATGGACCGGTTTTCCCGGTAATCCGTATTTGCT (site CCGTTTACTAG) | 0
29 | ATTGTTCCATGGACCGGTTTTCCCGGTAATCCGTATTTGGT (site TTTGTTCCTAC) | 0.331
30 | TAATTCCCATGGACCGGTTTTCCCGGTAATCCGTATTTGCT (site TAATTCCCTAG) | 1.65
31 | CGTGGAACATGGACCGGTTTTCCCGGTAATCCGTATTTGTT (site CGTGGATCTAA) | 0.524
32 | CACGTCACATGGACCGGTTTTCCCGGTAATCCGTATTTGGG (site CAGGTCACTCC) | 0.00985
33 | GGTCATCCATGGACCGGTTTTCCCGGTAATCCGTATTTGAA (site GGTCATCCTTT) | 0.0104
34 | CGATCAGCATGGACCGGTTTTCCCGGTAATCCGTATTTGCT (site CGATCACCTAG) | 0
35 | GGGGCACCATGGACCGGTTTTCCCGGTAATCCGTATTTGTA (site GGGGCACCTTC) | 0.0203
36 | CCTAGGTCATGGACCGGTTTTCCCGGTAATCCGTATTTGAA (site CCTAGGTCTTT) | 0.213
37 | AGGTAGACATGGACCGGTTTTCCCGGTAATCCGTATTTGCC (site AGGTAGACTGG) | 2.79
38 | CAATGAGCATGGACCGGTTTTCCCGGTAATCCGTATTTGGG (site GAATGAGCTCC) | 0.00334
39 | GCTTGCCCATGGACCGGTTTTCCCGGTAATCCGTATTTGTT (site GCTTGCCCTAG) | 0
40 | GGATCGACATGGACCGGTTTTCCCGGTAATCCGTATTTGTT (site GGATCGACTAA) | 0.7
41 | TGTACACCATGGACCGGTTTTCCCGGTAATCCGTATTTGAA (site TGTACACCTAT) | 0.0146
42 | CGAGGACCATGGACCGGTTTTCCCGGTAATCCGTATTTGAG (site CGAGGACCTCC) | 0
43 | CATGCGCCATGGACCGGTTTTCCCGGTAATCCGTATTTGTG (site CACGCGCCTCA) | 0.0136
44 | TACTTGGCATGGACCGGTTTTCCCGGTAATCCGTATTTGTG (site TAGTTGGCTCA) | 0.017
45 | TCAGAGACATGGACCGGTTTTCCCGGTAATCCGTATTTGCG (site ACAGAGACTCG) | 1.11
46 | GAGCGCACATGGACCGGTTTTCCCGGTAATCCGTATTTGAT (site GAGCACACTAT) | 1.07
47 | CTAATAGCATGGACCGGTTTTCCCGGTAATCCGTATTTGAT (site CTAATAGCTAT) | 2.21
48 | TCGCTAGCATGGACCGGTTTTCCCGGTAATCCGTATTTGAA (site TGGCTAGCTTT) | 0

Row | Sequence | recombinant UMI read abundance (log10)
49 | CGGGTGTCATGGACCGGTTTTCCCGGTAATCCGTATTTGCC (site CGGGCGTCTGG) | 1.74
50 | CAGAATCCATGGACCGGTTTTCCCGGTAATCCGTATTTGTT (site CAGAATCCTAA) | 2.07
51 | CACGTCCCATGGACCGGTTTTCCCGGTAATCCGTATTTGTT (site CACGGCCCTAA) | 0.00825
52 | AGCTCAGCATGGACCGGTTTTCCCGGTAATCCGTATTTGGG (site AGCTCAGCTTC) | 0.0127
53 | GCTTGGACATGGACCGGTTTTCCCGGTAATCCGTATTTGAC (site GTTTGGACTGT) | 0.707
54 | CGGACATCATGGACCGGTTTTCCCGGTAATCCGTATTTGCG (site CGGACATCTGG) | 0
55 | AGCTTCCCATGGACCGGTTTTCCCGGTAATCCGTATTTGTG (site AGTTTCCCTCA) | 0.0209
56 | TACGATACATGGACCGGTTTTCCCGGTAATCCGTATTTGGA (site TACGATACTTC) | 0.806
57 | ATCTATACATGGACCGGTTTTCCCGGTAATCCGTATTTGAC (site ATCTTTACTGT) | 0
58 | ACCTTAGCATGGACCGGTTTTCCCGGTAATCCGTATTTGAA (site ACCTTAGCTTT) | 0.29
59 | AGGGAACCATGGACCGGTTTTCCCGGTAATCCGTATTTGAT (site TGGGAACCTAT) | 0
60 | ATCCTAGCATGGACCGGTTTTCCCGGTAATCCGTATTTGTA (site ATCCTAGCTTA) | 1.58
61 | TAGTAATCATGGACCGGTTTTCCCGGTAATCCGTATTTGCG (site TAGGAATCTCG) | 1.47
62 | AGCTCAGCATGGACCGGTTTTCCCGGTAATCCGTATTTGGG (site AGCACAGCTCC) | 0.212
63 | ATTGAGACATGGACCGGTTTTCCCGGTAATCCGTATTTGGT (site ACTGAGACTAC) | 0.972
64 | AGATCATCATGGACCGGTTTTCCCGGTAATCCGTATTTGCA (site CGATCATCTAG) | 0
65 | GCCTAGACATGGACCGGTTTTCCCGGTAATCCGTATTTGGG (site ACCTAGACTCC) | 0.186
66 | CGTGCAACATGGACCGGTTTTCCCGGTAATCCGTATTTGTT (site CGTGCAACTAA) | 0.0114
67 | ACACGAACATGGACCGGTTTTCCCGGTAATCCGTATTTGCC (site ACACGAACTGT) | 1.59
68 | CTCTTCTCATGGACCGGTTTTCCCGGTAATCCGTATTTGGG (site CACTTCTCTCC) | 0
69 | AGCTTCCCATGGACCGGTTTTCCCGGTAATCCGTATTTGTG (site AGGTTCCCTCA) | 0.00784
70 | CCTGGTCCATGGACCGGTTTTCCCGGTAATCCGTATTTGCA (site CCCGGTCCTTG) | 0.00677
71 | CAACTCACATGGACCGGTTTTCCCGGTAATCCGTATTTGGG (site CAACTCACTCC) | 0.0233
72 | TGGAAGACATGGACCGGTTTTCCCGGTAATCCGTATTTGCG (site TGGAAGACTCG) | 2.05
